Data on eleven compounds can be found in US8614218B2, “Fused bicyclic pyrimidines” (Bayer Intellectual Property GmbH, priority 2007, dated 2013).

The test system of assay [1] is A549 cells. The assay can be described thus: Cellular proliferation/cytotoxicity assay (Alamar Blue), A549. Type of assay: cell-based. The note with it: Homo sapiens, 72 h, Alamar Blue (Resazurin), read-out: Anti-proliterative/Cytotoxic activity (A549 cells). Put shortly:
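OvCAR3 (10000 cells/well) or A549 (2000 cells/well) were dosed 24 h after seeding and exposed for 72 h at 37 °C, 5% CO2, in duplicate or more. Resazurin was added for 4 h and fluorescence read at 544/590 nm. Viability is relative to untreated 0.5% DMSO controls, with IC50 by non-linear regression.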
Background: Resazurin is reduced to fluorescent resorufin, in cell work by metabolically active cells.

Assay [2] deals with phospho-GSK3 (Ser9). Kind of assay: Cellular pGSK3 assay (phospho-GSK3 ELISA). In kind it is cell-based. To be noted: Homo sapiens, MCF7 cells, 48 h incubation, read-out: Cellular pGSK3 pathway assay. The method, then: In order to study the cellular activity of the compounds according to the present invention, an ELISA-based assay has been established for the phosphorylated protein glycogen synthetase kinase 3 (GSK3). The assay is based on a solid phase sandwich ELISA that detects endogenous levels of phosphorylated GSK3 using a phospho-GSK3 (Ser9) specific antibody (BioSource International, Inc.; Catalog #KHO0461). After incubation with cell lysates, the coated antibody captures the phosphorylated GSK3 protein. Following extensive washing, GSK3 polyclonal antibody is added to detect the captured phospho-GSK3 protein. Secondary antibody (anti-rabbit IgG-HRP) is then used to recognize the bound detection antibody. After the second incubation and washing to remove all the excess anti-rabbit IgG-HRP, a substrate solution is added, which is acted upon by the bound enzyme to produce color. The intensity of this colored product is directly proportional to the concentration of GSK-3β [pS9] present in the original specimen. MCF7 cells (ATCC HTB-22) were seeded into 96 well fate bottom plates at a density of 10000 cells/well. After 24 h 1 μl each of the compound dilutions (test compounds were dissolved as 10 mM solutions in dimethylsulfoxide (DMSO) and subsequently diluted) were added into each well of the 96 well plates and incubated for 48 h at 37° C. in a humidified atmosphere containing 5% CO2. Cells were harvested and lysed in cell extraction buffer (10 mM Tris, pH 7.4, 100 mM NaCl, 1 mM EDTA, 1 mM EGTA, 1 mM NaF, 20 mM Na4P2O7, 2 mM Na3VO4, 1% Triton X-100, 10 vol % glycerol, 0.1 vol % SDS, 0.5 vol % deoxycholate, 1 mM phenylmethylsulfonylfluoride (PMSF)). The lysate were centrifuged for 10 min. at 4° C. and the supernatant were transferred to a new tube. 50 μl of sample diluent (standard diluent buffer, Biosource) were added and 100 μl of cell lysate transferred into the tube and vortexed. 100 μl of each diluted cell lysate were added to the appropriate ELISA well plate and incubated for 3 h at room temperature. The plates were washed 4 times with 1× wash buffer (Biosource). 50 μl of detection antibody (GSK3 (Ser9) detection antibody; BioSource) were added to each well and incubated for 30 min. at room temperature. The washing procedure was repeated between each step. 100 μl of HRP-linked secondary antibody (anti-mouse IgG HRP-linked antibody) were added to each well and incubated for 30 min. at room temperature. 100 μl of TMB substrate (0.05 vol % 3,3′,5,5′ tetramethylbenzidine, 0.1 vol % hydrogen peroxide, complex polypeptides in a buffered solution; Biosource) were added to each well and incubated for 30 min. at room temperature. Finally 100 μl of Stop solution (0.05 vol % α and β unsaturated carbonyl compound) were added to each well and the plate were shaked gently for a few seconds. The absorbance was measured at λ=450 nm (Wallac Victor2; Perkin Elmer, USA) within 30 min. after adding the stop solution.
The analysis of the data was performed using a statistical program (Excel; Microsoft, USA) and the IC50 of pGSK3 inhibition was determined.

Molecules are shown by their SMILES.

As for `CC(c1ccc(-c2nc3nccn3cc2-c2ccccc2)cc1)N1CCC(c2n[nH]c(-c3ccccn3)n2)CC1` (racemic) [Example 23, 6-phenyl-7-(4-{1-[4-(5-pyridin-2-yl-1H-1,2,4-triazol-3-yl)piperidin-1-yl]ethyl}phenyl)imidazo[1,2-a]pyrimidine], the IC50 in assay [1] and in assay [2] was over 10 µM each time.
As to `Brc1cnn2cc(-c3ccccc3)c(-c3ccc(CN4CCC(c5n[nH]c(-c6ccccn6)n5)CC4)cc3)nc12` [Example 31, 3-Bromo-6-phenyl-5-(4-{[4-(5-pyridin-2-yl-1H-1,2,4-triazol-3-yl)piperidin-1-yl]methyl}phenyl)pyrazolo[1,5-a]pyrimidine], the values for the IC50 in assay [1] and in assay [2] were under 10 µM and under 1 µM, respectively.
For the compound `C#Cc1cnn2cc(-c3ccccc3)c(-c3ccc(CN4CCC(c5n[nH]c(-c6ccccn6)n5)CC4)cc3)nc12` [Example 33, 3-Ethynyl-6-phenyl-5-(4-{[4-(5-pyridin-2-yl-1H-1,2,4-triazol-3-yl)piperidin-1-yl]methyl}phenyl)pyrazolo[1,5-a]pyrimidine], the IC50 in assay [1] was under 10 µM; in assay [2] it was 1 to 10 µM.
The matching figures for `N#Cc1cnn2cc(-c3ccccc3)c(-c3ccc(CN4CCC(c5n[nH]c(-c6ccccn6)n5)CC4)cc3)nc12` [Example 32, 6-Phenyl-5-(4-{[4-(5-pyridin-2-yl-1H-1,2,4-triazol-3-yl)piperidin-1-yl]methyl}phenyl)pyrazolo[1,5-a]pyrimidine-3-carbonitrile]: over 10 µM and under 1 µM.
Consider `Cc1ccnc(-c2nc(C3CCN(Cc4ccc(-c5nc6nccn6cc5-c5ccccc5)cc4)CC3)n[nH]2)c1` [Example 35, 7-[4-({4-[5-(4-Methylpyridin-2-yl)-1H-1,2,4-triazol-3-yl]piperidin-1-yl}methyl)phenyl]-6-phenylimidazo[1,2-a]pyrimidine], for which the IC50 in assay [1] is under 10 µM; in assay [2], 1 to 10 µM.
Consider `Clc1cnn2cc(-c3ccccc3)c(-c3ccc(CN4CCC(c5n[nH]c(-c6ccccn6)n5)CC4)cc3)nc12` [Example 30, 3-Chloro-6-phenyl-5-(4-{[4-(5-pyridin-2-yl-1H-1,2,4-triazol-3-yl)piperidin-1-yl]methyl}phenyl)pyrazolo[1,5-a]pyrimidine], for which the IC50 in assay [1] is under 10 µM; in assay [2] it was under 1 µM.
As for `CCc1nc2nc(-c3ccc(CN4CCC(c5n[nH]c(-c6ccccn6)n5)CC4)cc3)c(-c3ccccc3)cn2n1` [Example 40, 2-Ethyl-6-phenyl-5-(4-{[4-(5-pyridin-2-yl-1H-1,2,4-triazol-3-yl)piperidin-1-yl]methyl}phenyl)[1,2,4]triazolo[1,5-a]pyrimidine], the figures for the IC50 in assay [1] and in assay [2] were under 10 µM and under 1 µM, respectively.
The like results for `Cc1cccc(-c2nc(C3CCN(Cc4ccc(-c5nc6nccn6cc5-c5ccccc5)cc4)CC3)n[nH]2)n1` [Example 36, 7-[4-({4-[5-(6-Methylpyridin-2-yl)-1H-1,2,4-triazol-3-yl]piperidin-1-yl}methyl)phenyl]-6-phenylimidazo[1,2-a]pyrimidine] were, in that order, under 10 µM and under 1 µM.
With `Fc1cnc2nc(-c3ccc(CN4CCC(c5n[nH]c(-c6cnccn6)n5)CC4)cc3)c(-c3ccccc3)cn12` [Example 24, 3-fluoro-6-phenyl-7-(4-{[4-(5-pyrazin-2-yl-1,2,4-triazol-3-yl)piperidin-1-yl]methyl}phenyl)imidazo[1,2-a]pyrimidine], the values for the IC50 in assay [1] and in assay [2] were over 10 µM and 1 to 10 µM, respectively.
The matching figures for `Fc1cnc2nc(-c3ccc(CN4CCC(c5n[nH]c(-c6ncccn6)n5)CC4)cc3)c(-c3ccccc3)cn12` [Example 25, 3-fluoro-6-phenyl-7-(4-{[4-(5-pyrimidin-2-yl-1H-1,2,4-triazol-3-yl)piperidin-1-yl]methyl}phenyl)imidazo[1,2-a]pyrimidine]: over 10 µM and over 10 µM.
For `CCc1cnn2cc(-c3ccccc3)c(-c3ccc(CN4CCC(c5n[nH]c(-c6ccccn6)n5)CC4)cc3)nc12` [Example 34, 3-Ethyl-6-phenyl-5-(4-{[4-(5-pyridin-2-yl-1H-1,2,4-triazol-3-yl)piperidin-1-yl]methyl}phenyl)pyrazolo[1,5-a]pyrimidine], the IC50 in assay [1] was under 10 µM; in assay [2], 1 to 10 µM.
